This series in a line: In-vitro confocal microscopy of markers containing fluorescent amphiphiles in PBS. The format is physicochemical. Conditions: LAP:GTH with co-solvent (5% PC or 10% EtOH). On the procedure:
DOPE-RhB was dissolved in EtOH or triglycerides and added to the formulations in amounts resulting in the desired final concentrations (˜1.3*10^−3 ug/uL) in formulations consisting of lactose acetate:propionate 1:1/lactose isobutyrate co-formulated with either 25 wt % EtOH or 40 wt % triglyceride (GTO/GTH), with or without 10 wt % EtOH or 5 wt % PC (˜240 uL formulations in total). The DOPE-RhB solutions were made from a motherstock of 1 mg/mL DOPE-RhB in EtOH with serial dilution into EtOH/triglyceride (GTO/GTH). The injected formulations were imaged in PBS in 8-well microscope slides under the confocal microscope. […]
Laser Scanning Confocal Microscopy was performed using a Leica TCS SP5 Scanning Laser Confocal Microscope operated using a 61× wet objective and a 561 nm excitation DPPS Laser. Samples (˜5-10 uL) were prepared in 8 well microscope slides containing PBS buffer and imaged on the same day to study the distribution of fluorescence signal within the material. In case of Rhodamine B, emission was detected between 575 and 674 nm, while in case of carboxy fluorescein emission was detected between 480 and 580 nm. […]

Each structure is given as a SMILES string.

As for `CCCCCCCC/C=C\CCCCCCCC(=O)OC[C@H](COP(=O)(O)OCCNC(=O)c1ccc2c(c1)C(=O)OC21c2ccc(O)cc2Oc2cc(O)ccc21)OC(=O)CCCCCCC/C=C\CCCCCCCC.N.N` [DOPE-CF], the “Distribution of fluorophore labeled lipid in the marker” value was “clearly higher distribution of DOPE-RhB and DOPE-CF in the rim of the injected formulation”.

The values above are taken from US11331396B2, “Development of injectable fiducial markers for image guided radiotherapy with dual MRI and CT visibility” (TECHNICAL UNIVERSITY OF DENMARK, priority 2017, dated 2022).
